Laboratory results reported in US9776997B2, “3-aryl-substituted imidazo[1,2-A]pyridines and their use” (Bayer Pharma Aktiengesellschaft, priority 2013, dated 2017).
Counter-ions that a name gives are not always drawn.

Biological target: T1, recombinant guanylate cyclase reporter cell line (Rattus norvegicus, UniProt P19686+P20595)
T1 construct: expressed in transfected cells; host or cells: recombinant reporter cell line
T1 sequence (P19686 1-690): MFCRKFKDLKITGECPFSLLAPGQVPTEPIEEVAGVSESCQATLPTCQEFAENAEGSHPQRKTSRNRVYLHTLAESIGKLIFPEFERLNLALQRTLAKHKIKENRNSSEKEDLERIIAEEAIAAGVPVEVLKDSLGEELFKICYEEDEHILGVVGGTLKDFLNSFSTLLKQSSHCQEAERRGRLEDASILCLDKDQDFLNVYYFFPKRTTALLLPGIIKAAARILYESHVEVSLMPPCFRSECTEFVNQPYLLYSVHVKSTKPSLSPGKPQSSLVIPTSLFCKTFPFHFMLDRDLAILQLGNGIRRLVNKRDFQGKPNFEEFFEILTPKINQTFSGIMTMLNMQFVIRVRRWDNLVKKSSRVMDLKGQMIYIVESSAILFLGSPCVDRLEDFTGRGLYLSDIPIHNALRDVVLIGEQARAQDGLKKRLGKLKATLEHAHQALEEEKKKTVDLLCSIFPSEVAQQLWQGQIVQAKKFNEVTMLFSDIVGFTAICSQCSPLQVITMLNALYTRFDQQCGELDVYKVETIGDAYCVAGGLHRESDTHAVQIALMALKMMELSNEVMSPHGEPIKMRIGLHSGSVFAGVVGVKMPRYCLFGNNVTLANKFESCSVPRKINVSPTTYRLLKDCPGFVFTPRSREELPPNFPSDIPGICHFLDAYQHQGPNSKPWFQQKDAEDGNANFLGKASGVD
T1 sequence (P20595 1-619): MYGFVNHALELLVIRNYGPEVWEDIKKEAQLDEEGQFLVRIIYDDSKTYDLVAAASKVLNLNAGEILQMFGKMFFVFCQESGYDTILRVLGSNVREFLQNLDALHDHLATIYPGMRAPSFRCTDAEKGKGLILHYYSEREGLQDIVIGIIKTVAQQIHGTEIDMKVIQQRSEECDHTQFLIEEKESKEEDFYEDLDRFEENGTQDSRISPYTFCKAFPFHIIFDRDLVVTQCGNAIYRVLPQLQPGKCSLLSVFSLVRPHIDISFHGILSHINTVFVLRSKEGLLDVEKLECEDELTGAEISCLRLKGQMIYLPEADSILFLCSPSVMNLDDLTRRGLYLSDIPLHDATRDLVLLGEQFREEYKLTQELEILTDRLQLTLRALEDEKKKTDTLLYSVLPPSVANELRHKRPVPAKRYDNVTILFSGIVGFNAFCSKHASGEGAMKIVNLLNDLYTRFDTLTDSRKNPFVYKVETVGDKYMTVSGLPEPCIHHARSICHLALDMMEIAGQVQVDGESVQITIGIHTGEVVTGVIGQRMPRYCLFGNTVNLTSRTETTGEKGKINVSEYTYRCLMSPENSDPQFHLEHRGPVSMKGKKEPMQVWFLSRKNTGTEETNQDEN
Test: Effect on a recombinant guanylate cyclase reporter cell line
Assay type: cell-based
Conditions: MEC = minimum effective concentration; in some cases mean values for individual determinations
Method: B-2. Effect on a Recombinant Guanylate Cyclase Reporter Cell Line
The cellular effect of the inventive compounds is determined using a recombinant guanylate cyclase reporter cell line, as described in F. Wunder et al., Anal. Biochem. 339, 104-112 (2005).
Representative MEC values (MEC=minimum effective concentration) for the inventive compounds are shown in the table below (in some cases as mean values for individual determinations): […]

Row | MEC [µM] | Compound
1 | 3.0 | Cc1nc2c(OCc3c(F)cccc3F)cccn2c1-c1ccc(Oc2ccccc2)cc1 [Example 31, 8-[(2,6-difluorobenzyl)oxy]-2-methyl-3-(4-phenoxyphenyl)imidazo[1,2-a]pyridine]
2 | 3.0 | C=Cc1ccc(-c2c(C)nc3c(OCc4c(F)cccc4F)cccn23)cc1 [Example 32, 8-[(2,6-difluorobenzyl)oxy]-2-methyl-3-(4-vinylphenyl)imidazo[1,2-a]pyridine]
3 | 3.0 | CSc1cccc(-c2c(C)nc3c(OCc4c(F)cccc4F)cccn23)c1 [Example 33, 8-[(2,6-difluorobenzyl)oxy]-2-methyl-3-[3-(methylsulphanyl)phenyl]imidazo[1,2-a]pyridine]
4 | 3.0 | Cc1nc2c(OCc3c(F)cccc3F)cccn2c1-c1cccc(Cl)c1 [Example 34, 3-(3-chlorophenyl)-8-[(2,6-difluorobenzyl)oxy]-2-methylimidazo[1,2-a]pyridine]
5 | 3.0 | Cc1nc2c(OCc3c(F)cccc3F)cccn2c1-c1csc2ccccc12 [Example 35, 3-(1-benzothiophen-3-yl)-8-[(2,6-difluorobenzyl)oxy]-2-methylimidazo[1,2-a]pyridine]
6 | 3.0 | Cc1nc2c(OCc3c(F)cccc3F)cccn2c1-c1ccc2c(ccn2C)c1 [Example 36, 8-[(2,6-difluorobenzyl)oxy]-2-methyl-3-(1-methyl-1H-indol-5-yl)imidazo[1,2-a]pyridine]
7 | 3.0 | Cc1nc2c(OCc3c(F)cccc3F)cccn2c1-c1ccc2c(c1)OCCO2 [Example 37, 8-[(2,6-difluorobenzyl)oxy]-3-(2,3-dihydro-1,4-benzodioxin-6-yl)-2-methylimidazo[1,2-a]pyridine]
8 | 3.0 | Cc1nc2c(OCc3c(F)cccc3F)cccn2c1-c1cccc(N2CCCCC2)c1 [Example 38, 8-[(2,6-difluorobenzyl)oxy]-2-methyl-3-[3-(piperidin-1-yl)phenyl]imidazo[1,2-a]pyridine]
9 | 3.0 | Cc1nc2c(OCc3c(F)cccc3F)cccn2c1-c1ccc(CN2CCOCC2)c(F)c1 [Example 39, 8-[(2,6-difluorobenzyl)oxy]-3-[3-fluoro-4-(morpholin-4-ylmethyl)phenyl]-2-methylimidazo[1,2-a]pyridine]
10 | 3.0 | Cc1nc2c(OCc3c(F)cccc3F)cccn2c1-c1ccc(C(N)=O)cc1 [Example 40, 4-{8-[(2,6-difluorobenzyl)oxy]-2-methylimidazo[1,2-a]pyridin-3-yl}benzamide]
11 | 3.0 | COc1ccc(-c2c(C)nc3c(OCc4c(F)cccc4F)cccn23)cc1CN1CCOCC1 [Example 41, 8-[(2,6-difluorobenzyl)oxy]-3-[4-methoxy-3-(morpholin-4-ylmethyl)phenyl]-2-methylimidazo[1,2-a]pyridine]
12 | 3.0 | Cc1nc2c(OCc3c(F)cccc3F)cccn2c1-c1cccc(CN2CCCCC2)c1 [Example 42, 8-[(2,6-difluorobenzyl)oxy]-2-methyl-3-[3-(piperidin-1-ylmethyl)phenyl]imidazo[1,2-a]pyridine]
13 | 3.0 | CCN(CC)Cc1ccc(-c2c(C)nc3c(OCc4c(F)cccc4F)cccn23)cc1F [Example 43, N-(4-{8-[(2,6-difluorobenzyl)oxy]-2-methylimidazo[1,2-a]pyridin-3-yl}-2-fluorobenzyl)-N-ethylethanamine]
14 | 3.0 | Cc1nc2c(OCc3c(F)cccc3F)cccn2c1-c1ccc(F)c(CN2CCOCC2)c1 [Example 44, 8-[(2,6-difluorobenzyl)oxy]-3-[4-fluoro-3-(morpholin-4-ylmethyl)phenyl]-2-methylimidazo[1,2-a]pyridine]
15 | 0.1 | Cc1nc2c(OCc3c(F)cccc3F)cccn2c1-c1cn[nH]c1 [Example 45, 8-[(2,6-difluorobenzyl)oxy]-2-methyl-3-(1H-pyrazol-4-yl)imidazo[1,2-a]pyridine]
16 | 0.2 | Cc1nc2c(OCc3c(F)cccc3F)cccn2c1-c1cccc(S(C)(=O)=O)c1 [Example 46]
17 | 0.3 | Cc1nc2c(OCc3c(F)cccc3F)cccn2c1-c1ccn[nH]1 [Example 47]
18 | 0.2 | Cc1nc2c(OCc3c(F)cccc3F)cccn2c1-c1cccc(NS(C)(=O)=O)c1 [Example 48]
19 | 0.3 | CCn1cc(-c2c(C)nc3c(OCc4c(F)cccc4F)cccn23)cn1 [Example 49]
20 | 0.3 | Cc1nc2c(OCc3c(F)cccc3F)cccn2c1-c1cnn(C)c1 [Example 50]
21 | 0.3 | Cc1nc2c(OCc3c(F)cccc3F)cccn2c1-c1ccc2cn[nH]c2c1 [Example 51]

Row | MEC [µM] | Compound
22 | 0.3 | Cc1nc2c(OCc3c(F)cccc3F)cccn2c1-c1cnn(C(C)C)c1 [Example 52]
23 | 1.0 | Cc1nc2c(OCc3c(F)cccc3F)cccn2c1-c1cccc2[nH]ncc12 [Example 53]
24 | 1.0 | Cc1nc2c(OCc3c(F)cccc3F)cccn2c1-c1ccc2[nH]ncc2c1 [Example 54]
25 | 1.0 | Cc1nn(C)cc1-c1c(C)nc2c(OCc3c(F)cccc3F)cccn12 [Example 55]
26 | 3.0 | Cc1nc2c(OCc3c(F)cccc3F)cccn2c1-c1cnn(C)c1C [Example 56]
27 | 1.0 | CCNc1nnc(-c2c(C)nc3c(OCc4c(F)cccc4F)cccn23)o1 [Example 57, 5-{8-[(2,6-Difluorobenzyl)oxy]-2-methylimidazo[1,2-a]pyridin-3-yl}-N-ethyl-1,3,4-oxadiazole-2-amine]
28 | 3.0 | Cc1nc2c(OCc3c(F)cccc3F)cccn2c1-c1nnc(N)o1 [Example 58, 5-{8-[(2,6-Difluorobenzyl)oxy]-2-methylimidazo[1,2-a]pyridin-3-yl}-1,3,4-oxadiazole-2-amine]
29 | 1.0 | Cc1nc2c(OCc3c(F)cccc3F)cccn2c1-c1ccnc(-c2ccc(F)cc2)c1 [Example 59, 8-[(2,6-Difluorobenzyl)oxy]-3-[2-(4-fluorophenyl)pyridin-4-yl]-2-methylimidazo[1,2-a]pyridine]
30 | 3.0 | Cc1nc2c(OCc3c(F)cccc3F)cccn2c1-c1cnccn1 [Example 60, 8-[(2,6-Difluorobenzyl)oxy]-2-methyl-3-(pyrazin-2-yl)imidazo[1,2-a]pyridine]
31 | 3.0 | CCCCc1coc(-c2c(C)nc3c(OCc4c(F)cccc4F)cc(Cl)cn23)n1 [Example 61, 3-(4-Butyl-1,3-oxazol-2-yl)-6-chloro-8-[(2,6-difluorobenzyl)oxy]-2-methylimidazo[1,2-a]pyridine trifluoroacetate]
32 | 3.0 | Cc1nc2c(OCC3CCCCC3)cccn2c1-c1nnc(-c2ncccn2)o1 [Example 62, 8-(Cyclohexylmethoxy)-2-methyl-3-[5-(pyrimidin-2-yl)-1,3,4-oxadiazol-2-yl]imidazo[1,2-a]pyridine]
33 | 3.0 | Cc1nc2c(OCC3CCCCC3)cccn2c1-c1nnc(-c2cccnc2)o1 [Example 64]
34 | 3.0 | Cc1nc2c(OCC3CCCCC3)cccn2c1-c1nnc(C(C)O)o1 (stereo not drawn) [Example 65]
35 | 3.0 | CCOCc1nnc(-c2c(C)nc3c(OCC4CCCCC4)cccn23)o1 [Example 66]
36 | 3.0 | COCc1nnc(-c2c(C)nc3c(OCC4CCCCC4)cccn23)o1 [Example 67]
37 | 3.0 | COCCc1nnc(-c2c(C)nc3c(OCC4CCCCC4)cccn23)o1 [Example 68]
38 | 3.0 | Cc1nc(-c2nnc(-c3c(C)nc4c(OCC5CCCCC5)cccn34)o2)cs1 [Example 69]
39 | 3.0 | CCC(C)c1nnc(-c2c(C)nc3c(OCC4CCCCC4)cccn23)o1 (stereo not drawn) [Example 70]
40 | 3.0 | Cc1nc2c(OCC3CCCCC3)cccn2c1-c1nnc(CN2CCCC2=O)o1 [Example 71]
41 | 3.0 | Cc1nc(C)n(Cc2nnc(-c3c(C)nc4c(OCC5CCCCC5)cccn34)o2)n1 [Example 72]
42 | 3.0 | Cc1nc2c(OCC3CCCCC3)cccn2c1-c1nnc(C2CCS(=O)(=O)C2)o1 (stereo not drawn) [Example 73]
